ChEMBL document CHEMBL1201862, “PubChem BioAssay data set” (2004)
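In this assay, cells in 96-well plates receive the compound at five concentrations for 48 hours. Endpoints are linearly interpolated between the surrounding concentrations. At the GI50, growth is halved.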 Calls of active or inactive are those of the source. Cut-off read from the data, not from the text of the source: active = GI50 up to about 1.1 µM and inactive = higher.

Key:
Experiment in all cases: NCI anticancer screen, dose series, 48 h
[1] = tested on: A498
[2] = tested on: SK-MEL-2
[3] = tested on: Hs-578T
[4] = tested on: HCC 2998
[5] = tested on: DU-145
[6] = tested on: UACC-257
[7] = tested on: MDA-MB-231
[8] = tested on: RPMI-8226
[9] = tested on: BT-549
[10] = tested on: NCI-H226
[11] = tested on: NCI-H522
[12] = tested on: CCRF-CEM
[13] = tested on: NCI/ADR-RES
[14] = tested on: MDA-N
[15] = tested on: 786-0
[16] = tested on: PC-3
[17] = tested on: KM12
[18] = tested on: CAKI-1
[19] = tested on: OVCAR-5
[20] = tested on: Malme-3M

Structure (SMILES)	GI50 [1]	GI50 [2]	GI50 [3]	GI50 [4]	GI50 [5]	GI50 [6]	GI50 [7]	GI50 [8]	GI50 [9]	GI50 [10]	GI50 [11]	GI50 [12]	GI50 [13]	GI50 [14]	GI50 [15]	GI50 [16]	GI50 [17]	GI50 [18]	GI50 [19]	GI50 [20]
O=[N+]([O-])C1=Cc2c(O)ccc(O)c2C2OC=CC12 (stereo unspecified)	15.7 µM (inactive)	18.7 µM (inactive)	29.2 µM (inactive)	27.4 µM (inactive)	26.4 µM (inactive)	15 µM (inactive)	18.5 µM (inactive)	34.1 µM (inactive)	14.6 µM (inactive)	30.7 µM (inactive)	3.83 µM (inactive)	8.89 µM (inactive)	19.2 µM (inactive)	5.97 µM (inactive)	17.9 µM (inactive)	14.7 µM (inactive)	16.4 µM (inactive)	13.1 µM (inactive)	23.5 µM (inactive)	
CC[C@@]1(O)C(=O)OCc2c1cc1n(c2=O)Cc2c-1nc1ccc(O)cc1c2CC[Si](C)(C)C	0.00383 µM (active)	0.1 µM (active)	0.681 µM (active)	0.0174 µM (active)	< 0.001 µM (active)	0.00275 µM (active)	0.187 µM (active)	0.0131 µM (active)	0.0205 µM (active)	0.0194 µM (active)	0.00291 µM (active)	< 0.001 µM (active)	0.0489 µM (active)	0.0133 µM (active)	< 0.001 µM (active)	0.141 µM (active)	0.0514 µM (active)	< 0.001 µM (active)	0.0272 µM (active)	0.016 µM (active)
NC(C(=O)OC(=O)c1ccccc1)C(=O)OC(=O)c1ccccc1	> 100 µM (inactive)	> 100 µM (inactive)	59.3 µM (inactive)		> 100 µM (inactive)	> 100 µM (inactive)	> 100 µM (inactive)	> 100 µM (inactive)	> 100 µM (inactive)	> 100 µM (inactive)	> 100 µM (inactive)	> 100 µM (inactive)	> 100 µM (inactive)	> 10 µM (inactive)	> 100 µM (inactive)	> 100 µM (inactive)	> 100 µM (inactive)	> 100 µM (inactive)	> 100 µM (inactive)	> 100 µM (inactive)
CC(C)CC1c2[nH]c3ccccc3c2C[C@H]2C(=O)NC(COC(C)(C)C)C(=O)N12 (stereo partly specified)	30.3 µM (inactive)	19.9 µM (inactive)	13.3 µM (inactive)		34.5 µM (inactive)	19 µM (inactive)	18.7 µM (inactive)	23.9 µM (inactive)	23.6 µM (inactive)	33.2 µM (inactive)	16.4 µM (inactive)		20.8 µM (inactive)	21.8 µM (inactive)	32.8 µM (inactive)	22 µM (inactive)	24.1 µM (inactive)	28.2 µM (inactive)	23.6 µM (inactive)	19.6 µM (inactive)
CSC(=S)CC(O)[C@@H]1CC2c3ccccc3C1c1ccccc12 (stereo partly specified)	20.7 µM (inactive)		15 µM (inactive)	12.8 µM (inactive)	15.2 µM (inactive)		23.8 µM (inactive)	3.11 µM (inactive)	13.2 µM (inactive)	9.06 µM (inactive)	2.82 µM (inactive)	1.95 µM (inactive)	12.6 µM (inactive)	11.7 µM (inactive)	18 µM (inactive)	5.83 µM (inactive)	11.3 µM (inactive)		16.7 µM (inactive)	19.7 µM (inactive)
COc1cc2c(cc1OC)C(=O)C1(C2)[C@H](c2ccccc2)C2C(=O)c3cc(OC)c(OC)cc3C2[C@H]1c1ccccc1 (stereo partly specified)	> 100 µM (inactive)		> 100 µM (inactive)	> 100 µM (inactive)	> 100 µM (inactive)	> 100 µM (inactive)	> 100 µM (inactive)	> 100 µM (inactive)	> 100 µM (inactive)	> 100 µM (inactive)	> 100 µM (inactive)	> 100 µM (inactive)	> 100 µM (inactive)	> 100 µM (inactive)	> 100 µM (inactive)	> 100 µM (inactive)	> 100 µM (inactive)	0.259 µM (active)	> 100 µM (inactive)	> 100 µM (inactive)
O=C(NCCCCCCCCNC(=O)c1cc(-c2ccccc2)nc2ccccc12)c1cc(-c2ccccc2)nc2ccccc12	> 100 µM (inactive)		28.7 µM (inactive)		> 100 µM (inactive)	> 100 µM (inactive)	> 100 µM (inactive)	> 100 µM (inactive)	57.7 µM (inactive)	> 100 µM (inactive)	87.7 µM (inactive)	> 100 µM (inactive)	> 100 µM (inactive)	> 100 µM (inactive)	41.7 µM (inactive)	> 100 µM (inactive)		> 100 µM (inactive)	> 100 µM (inactive)	> 100 µM (inactive)
CCOC(=O)CCC(NC(=O)c1ccc(OCc2nc3ccccc3n3cccc23)cc1)C(=O)OCC (stereo unspecified)	> 100 µM (inactive)	> 100 µM (inactive)	64.4 µM (inactive)	> 100 µM (inactive)	74.1 µM (inactive)	87.5 µM (inactive)	> 100 µM (inactive)		71.9 µM (inactive)	> 100 µM (inactive)	6.59 µM (inactive)	4.34 µM (inactive)	> 100 µM (inactive)	> 100 µM (inactive)	74.3 µM (inactive)	26.6 µM (inactive)	4.83 µM (inactive)	> 100 µM (inactive)	> 100 µM (inactive)	> 100 µM (inactive)
CCc1c(CNc2ccc(C(=O)NC(CC(=O)O)C(=O)O)cc2)ccc2nc(N)nc(N)c12 (stereo unspecified)	2.03 µM (inactive)	> 100 µM (inactive)	> 1000 µM (inactive)	0.0465 µM (active)	0.0125 µM (active)	5.19 µM (inactive)	> 100 µM (inactive)		25.4 µM (inactive)	> 100 µM (inactive)	0.914 µM (active)	< 0.0128 µM (active)	0.0288 µM (active)	< 0.01 µM (active)	< 0.01 µM (active)	305 µM (inactive)		< 0.0198 µM (active)	1.82 µM (inactive)	0.953 µM (active)
CCCc1c(O)nc2ccccc2c1O	> 100 µM (inactive)		> 100 µM (inactive)	> 100 µM (inactive)	> 100 µM (inactive)	> 100 µM (inactive)	> 100 µM (inactive)	> 100 µM (inactive)	> 100 µM (inactive)	> 100 µM (inactive)	> 100 µM (inactive)	> 100 µM (inactive)	> 100 µM (inactive)	> 100 µM (inactive)	> 100 µM (inactive)	> 100 µM (inactive)	> 100 µM (inactive)	> 100 µM (inactive)	> 100 µM (inactive)	> 100 µM (inactive)
O=C(O)c1ccccc1C(=O)Nc1cc2c(cc1Br)-c1ccccc1C2=O	> 100 µM (inactive)	> 100 µM (inactive)	91.2 µM (inactive)	23.2 µM (inactive)	64.4 µM (inactive)	> 100 µM (inactive)	> 100 µM (inactive)	> 100 µM (inactive)	> 100 µM (inactive)		59.7 µM (inactive)	45.9 µM (inactive)	> 100 µM (inactive)	> 100 µM (inactive)	> 100 µM (inactive)	> 100 µM (inactive)	> 100 µM (inactive)	> 100 µM (inactive)	> 100 µM (inactive)	> 100 µM (inactive)
O=C(O)CC(Sc1ccccc1)c1ccccc1 (stereo unspecified)	> 100 µM (inactive)	> 100 µM (inactive)	> 100 µM (inactive)		> 100 µM (inactive)		> 100 µM (inactive)	> 100 µM (inactive)	> 100 µM (inactive)	> 100 µM (inactive)	> 100 µM (inactive)		> 100 µM (inactive)	> 100 µM (inactive)	> 100 µM (inactive)	> 100 µM (inactive)	> 100 µM (inactive)	> 100 µM (inactive)	> 100 µM (inactive)	> 100 µM (inactive)
COC1CC(C)(NC(=O)C(F)(F)F)C2OC(c3ccccc3)OCC2O1 (stereo unspecified)	> 100 µM (inactive)		> 100 µM (inactive)		> 100 µM (inactive)	> 100 µM (inactive)	> 100 µM (inactive)	> 100 µM (inactive)	> 100 µM (inactive)	> 100 µM (inactive)	> 100 µM (inactive)	> 100 µM (inactive)	> 100 µM (inactive)	> 100 µM (inactive)	> 100 µM (inactive)	> 100 µM (inactive)	> 100 µM (inactive)	> 100 µM (inactive)	> 100 µM (inactive)	> 100 µM (inactive)
CN(Cc1cnc2nc(N)nc(N)c2n1)c1ccc(C(=O)NCCCS(=O)(=O)O)cc1	> 100 µM (inactive)	> 100 µM (inactive)	> 100 µM (inactive)	> 100 µM (inactive)	> 100 µM (inactive)	> 100 µM (inactive)	> 100 µM (inactive)	> 100 µM (inactive)	> 100 µM (inactive)	> 100 µM (inactive)	> 100 µM (inactive)		> 100 µM (inactive)	> 100 µM (inactive)	> 100 µM (inactive)	> 100 µM (inactive)	> 100 µM (inactive)		> 100 µM (inactive)	> 100 µM (inactive)
O=c1c(C(c2ccc(/C=C/c3ccccc3)cc2)c2c(O)oc3ccccc3c2=O)c(O)oc2ccccc12	30.5 µM (inactive)	34.8 µM (inactive)	26.8 µM (inactive)	23.3 µM (inactive)	50.8 µM (inactive)	53.7 µM (inactive)	28.7 µM (inactive)	27.2 µM (inactive)	26.6 µM (inactive)	28.2 µM (inactive)	18.6 µM (inactive)	41.4 µM (inactive)	24.9 µM (inactive)	21.8 µM (inactive)	24.4 µM (inactive)	40.2 µM (inactive)	23 µM (inactive)	23 µM (inactive)		21.6 µM (inactive)
